# Earlier results as cited in US11318113B2, “Compounds for the treatment of diseases linked to mitochondrial reactive oxygen species (ROS) production” (OP2 DRUGS, priority 2015, dated 2022).
# Tested on: complex I
# Conditions: Orr et al., 2013; cited from earlier work
compound,measurement,value
O=[N+]([O-])c1ccc(Oc2ccc(S(=O)(=O)NC3CCCCC3)cc2)cc1 [N-cyclohexyl-4-(4-nitrophenoxy) benzenesulfonamide],activity of complex I as a component of the respiratory chain and oxidative phosphorylation,does not modify
